Reference: patent US9061013B2, “Isoxazoline derivatives as antiparasitic agents” (Zoetis LLC, priority 2011, dated 2015)

System: Aedes aegypti
Assay: Mosquito (Aedes aegypti) Larval Assay
Conditions: mosquito larvae in DMSO/water solution, death or paralysis following 24 hour incubation at 22° C., read-out: Minimum Efficacious Dose (MED)
Protocol: Mosquito (Aedes aegypti) Larval Assay
Formula (1) compounds were dissolved in DMSO and water. Five instar mosquito larvae were added to the solution and observed for death or paralysis following a 24 hour incubation period at 22° C. Endpoint data was recorded as Minimum Efficacious Dose (MED) in μM.

Row | Structure (SMILES) | minimal effective concentration [µM]
1 | CNC(=O)C1CN(c2ccc(C3=NOC(c4cc(Cl)c(Cl)c(Cl)c4)(C(F)(F)F)C3)cc2Cl)C1 (centres unmarked) [Example 20, 1-{2-chloro-4-[5-(3,4,5-trichloro-phenyl)-5-trifluoromethyl-4,5-dihydro-isoxazol-3-yl]-phenyl}-azetidine-3-carboxylic acid methylamide] | ≤ 100
2 | CN(C)C(=O)C1CC(O)(c2ccc(C3=NOC(c4cc(Cl)c(Cl)c(Cl)c4)(C(F)(F)F)C3)cc2)C1 (centres unmarked) [Example 4, 3-hydroxy-3-{4-[5-(3,4,5-trichloro-phenyl)-5-trifluoromethyl-4,5-dihydro-isoxazol-3-yl]-phenyl}-cyclobutanecarboxylic acid dimethylamide] | ≤ 100
3 | O=C(NC1CC(F)(c2ccc(C3=NOC(c4cc(Cl)c(Cl)c(Cl)c4)(C(F)(F)F)C3)cc2)C1)C1CC1 (centres unmarked) [Example 24, N-(3-fluoro-3-(4-(5-(3,4,5-trichlorophenyl)-5-(trifluoromethyl)-4,5-dihydroisoxazol-3-yl)phenyl)cyclobutyl)cyclopropanecarboxamide] | ≤ 100
4 | CNC(=O)C1CN(c2ccc(C3=NOC(c4cc(Cl)c(Cl)c(Cl)c4)(C(F)(F)F)C3)cc2)C1 (centres unmarked) [Example 17, 1-{4-[5-(3,4,5-trichloro-phenyl)-5-trifluoromethyl-4,5-dihydro-isoxazol-3-yl]-phenyl}-azetidine-3-carboxylic acid methylamide] | ≤ 100
5 | CN(C)C(=O)C1CN(c2ccc(C3=NOC(c4cc(Cl)c(Cl)c(Cl)c4)(C(F)(F)F)C3)cc2Cl)C1 (centres unmarked) [Example 23, 1-{2-chloro-4-[5-(3,4,5-trichloro-phenyl)-5-trifluoromethyl-4,5-dihydro-isoxazol-3-yl]-phenyl}-azetidine-3-carboxylic acid dimethylamide] | ≤ 100
6 | CNC(=O)C1CC(O)(c2ccc(C3=NOC(c4cc(Cl)c(Cl)c(Cl)c4)(C(F)(F)F)C3)cc2)C1 (centres unmarked) [Example 3, 3-hydroxy-3-{4-[5-(3,4,5-trichloro-phenyl)-5-trifluoromethyl-4,5-dihydro-isoxazol-3-yl]-phenyl}-cyclobutanecarboxylic acid methylamide] | ≤ 100
7 | O=C(NC1CC1)C1CC(O)(c2ccc(C3=NOC(c4cc(Cl)c(Cl)c(Cl)c4)(C(F)(F)F)C3)cc2)C1 (centres unmarked) [Example 2, 3-hydroxy-3-{4-[5-(3,4,5-trichloro-phenyl)-5-trifluoromethyl-4,5-dihydro-isoxazol-3-yl]-phenyl}-cyclobutanecarboxylic acid cyclopropylamide] | ≤ 100
8 | O=C(NCC(F)(F)F)C1CN(c2ccc(C3=NOC(c4cc(Cl)c(Cl)c(Cl)c4)(C(F)(F)F)C3)cc2)C1 (centres unmarked) [Example 18, 1-{4-[5-(3,4,5-trichloro-phenyl)-5-trifluoromethyl-4,5-dihydro-isoxazol-3-yl]-phenyl}-azetidine-3-carboxylic acid (2,2,2-trifluoro-ethyl)-amide] | ≤ 100
9 | O=C(NC1CC1)C1CN(c2ccc(C3=NOC(c4cc(Cl)c(Cl)c(Cl)c4)(C(F)(F)F)C3)cc2)C1 (centres unmarked) [Example 16, 1-{4-[5-(3,4,5-trichloro-phenyl)-5-trifluoromethyl-4,5-dihydro-isoxazol-3-yl]-phenyl}-azetidine-3-carboxylic acid cyclopropylamide] | ≤ 100
10 | CS(=O)(=O)CC(=O)NC1CC(F)(c2ccc(C3=NOC(c4cc(Cl)c(Cl)c(Cl)c4)(C(F)(F)F)C3)cc2)C1 (centres unmarked) [Example 25, N-(3-fluoro-3-(4-(5-(3,4,5-trichlorophenyl)-5-(trifluoromethyl)-4,5-dihydroisoxazol-3-yl)phenyl)cyclobutyl)-2-(methylsulfonyl)acetamide] | ≤ 100
11 | O=C(CNC(=O)C1CC(F)(c2ccc(C3=NOC(c4cc(Cl)c(Cl)c(Cl)c4)(C(F)(F)F)C3)cc2)C1)NCC(F)(F)F (centres unmarked) [Example 15, 3-fluoro-N-(2-oxo-2-((2,2,2-trifluoroethyl)amino)ethyl)-3-(4-(5-(3,4,5-trichlorophenyl)-5-(trifluoromethyl)-4,5-dihydroisoxazol-3-yl)phenyl)cyclobutanecarboxamide] | ≤ 100
12 | CN(C)C(=O)C1CC(F)(c2ccc(C3=NOC(c4cc(Cl)c(Cl)c(Cl)c4)(C(F)(F)F)C3)cc2)C1 (centres unmarked) [Example 11, 3-fluoro-3-{4-[5-(3,4,5-trichloro-phenyl)-5-trifluoromethyl-4,5-dihydro-isoxazol-3-yl]-phenyl}-cyclobutanecarboxylic acid dimethylamide] | ≤ 100
13 | O=C(NC1CC1)C1CN(c2ccc(C3=NOC(c4cc(Cl)c(Cl)c(Cl)c4)(C(F)(F)F)C3)cc2Cl)C1 (centres unmarked) [Example 22, 1-{2-chloro-4-[5-(3,4,5-trichloro-phenyl)-5-trifluoromethyl-4,5-dihydro-isoxazol-3-yl]-phenyl}-azetidine-3-carboxylic acid cyclopropylamide] | ≤ 100
14 | O=C(NCC(F)(F)F)C1CC(O)(c2ccc(C3=NOC(c4cc(Cl)c(Cl)c(Cl)c4)(C(F)(F)F)C3)cc2)C1 (centres unmarked) [Example 1, 3-hydroxy-3-{4-[5-(3,4,5-trichloro-phenyl)-5-trifluoromethyl-4,5-dihydro-isoxazol-3-yl]-phenyl}-cyclobutanecarboxylic acid (2,2,2-trifluoro-ethyl)-amide] | ≤ 100
15 | CN(C)C(=O)C1CN(c2ccc(C3=NOC(c4cc(Cl)c(Cl)c(Cl)c4)(C(F)(F)F)C3)cc2)C1 (centres unmarked) [Example 19, 1-{4-[5-(3,4,5-trichloro-phenyl)-5-trifluoromethyl-4,5-dihydro-isoxazol-3-yl]-phenyl}azetidine-3-carboxylic acid dimethylamide] | ≤ 100
16 | CCNC(=O)C1CC(F)(c2ccc(C3=NOC(c4cc(Cl)c(Cl)c(Cl)c4)(C(F)(F)F)C3)cc2)C1 (centres unmarked) [Example 14, 3-fluoro-3-{4-[5-(3,4,5-trichloro-phenyl)-5-trifluoromethyl-4,5-dihydro-isoxazol-3-yl]-phenyl}-cyclobutanecarboxylic acid ethylamide] | ≤ 100
17 | O=C(NCC(F)(F)F)C1CC(F)(c2ccc(C3=NOC(c4cc(Cl)c(Cl)c(Cl)c4)(C(F)(F)F)C3)cc2)C1 (centres unmarked) [Example 7, 3-fluoro-3-{4-[5-(3,4,5-trichloro-phenyl)-5-trifluoromethyl-4,5-dihydro-isoxazol-3-yl]-phenyl}-cyclobutanecarboxylic acid (2,2,2-trifluoro-ethyl)-amide] | ≤ 100
18 | O=C(NCC(F)(F)F)C1CN(c2ccc(C3=NOC(c4cc(Cl)c(Cl)c(Cl)c4)(C(F)(F)F)C3)cc2Cl)C1 (centres unmarked) [Example 21, 1-{2-chloro-4-[5-(3,4,5-trichloro-phenyl)-5-trifluoromethyl-4,5-dihydro-isoxazol-3-yl]-phenyl}-azetidine-3-carboxylic acid (2,2,2-trifluoro-ethyl)-amide] | ≤ 100
19 | CNC(=O)C1CC(F)(c2ccc(C3=NOC(c4cc(Cl)c(Cl)c(Cl)c4)(C(F)(F)F)C3)cc2)C1 (centres unmarked) [Example 10, 3-fluoro-3-{4-[5-(3,4,5-trichloro-phenyl)-5-trifluoromethyl-4,5-dihydro-isoxazol-3-yl]-phenyl}-cyclobutanecarboxylic acid methylamide] | ≤ 100
20 | CC(C)NC(=O)C1CC(F)(c2ccc(C3=NOC(c4cc(Cl)c(Cl)c(Cl)c4)(C(F)(F)F)C3)cc2)C1 (centres unmarked) [Example 13] | ≤ 100
